Experimental data taken from PubChem BioAssay AID248 (DTP/NCI, 2004).
Several values for one entry are separate records, joined by “and”; a condition that tells them apart may be missing. Identical values can stand only once. Toxic doses and inconclusive results are not listed. Cut-off read from the data, not from the text of the source: active = T/C of 150% or more; inactive = T/C below 125%.

System: L1210 leukemia ip in BDF1 mice, survival T/C
Experiment: NCI In Vivo Anticancer Drug Screen. Data for tumor model L1210 Leukemia (intraperitoneal) in B6D2F1 (BDF1) mice
Settings: higher = longer survival
Method in brief: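 Each compound was tested against a transplantable tumor grown in mice. The endpoint was survival, with treated animals benchmarked against vehicle controls as a simple ratio.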

[1] = endpoint: mean survival time, dose: 100.0 mg/kg/injection, schedule: Q01DX009 (ip), vehicle: saline with Tween-80
[2] = endpoint: mean survival time, dose: 100.0 mg/kg/injection, schedule: Q04DX003 (ip), vehicle: saline
[3] = endpoint: mean survival time, dose: 200.0 mg/kg/injection, schedule: Q01DX009 (ip), vehicle: saline with Tween-80
[4] = endpoint: mean survival time, dose: 200.0 mg/kg/injection, schedule: Q04DX003 (ip), vehicle: saline
[5] = endpoint: mean survival time, dose: 400.0 mg/kg/injection, schedule: Q01DX009 (ip), vehicle: saline with Tween-80

Measured: T/C

NC(Cc1ccc([N+](=O)[O-])cc1)C(=O)O (stereo not drawn)
inactive: endpoint: mean survival time, dose: 100.0 mg/kg/injection, schedule: Q01DX001 (ip), vehicle: saline sonified 116 % of control | [1] 100 % of control and 98 % of control | [2] 111 % of control | endpoint: mean survival time, dose: 200.0 mg/kg/injection, schedule: Q01DX001 (ip), vehicle: saline sonified 103 % of control | [3] 95 % of control | [4] 101 % of control | endpoint: mean survival time, dose: 400.0 mg/kg/injection, schedule: Q01DX001 (ip), vehicle: saline sonified 103 % of control | [5] 100 % of control and 92 % of control | endpoint: mean survival time, dose: 400.0 mg/kg/injection, schedule: Q04DX003 (ip), vehicle: saline 90 % of control

CN(N=O)C(=O)N[C@@H](C=O)[C@@H](O)[C@H](O)[C@H](O)CO
inactive: endpoint: mean survival time, dose: 0.5 mg/kg/injection, schedule: Q03HX040 (ip), vehicle: other 94 % of control | endpoint: mean survival time, dose: 1.0 mg/kg/injection, schedule: Q03HX040 (ip), vehicle: other 98 % of control | endpoint: mean survival time, dose: 2.0 mg/kg/injection, schedule: Q03HX040 (ip), vehicle: other 92 % of control | endpoint: mean survival time, dose: 2.3 mg/kg/injection, schedule: Q01DX009 (ip), vehicle: other 96 % of control and 101 % of control | endpoint: mean survival time, dose: 4.0 mg/kg/injection, schedule: Q03HX040 (ip), vehicle: other 104 % of control | endpoint: mean survival time, dose: 4.5 mg/kg/injection, schedule: Q01DX009 (ip), vehicle: other 92 % of control and 105 % of control | endpoint: mean survival time, dose: 8.0 mg/kg/injection, schedule: Q03HX040 (ip), vehicle: other 112 % of control | endpoint: mean survival time, dose: 8.0 mg/kg/injection, schedule: Q## X009 (ip), vehicle: other 98 % of control | endpoint: mean survival time, dose: 9.0 mg/kg/injection, schedule: Q01DX009 (ip), vehicle: other 99 % of control and 111 % of control | endpoint: mean survival time, dose: 12.5 mg/kg/injection, schedule: Q01DX009 (ip), vehicle: saline 101 % of control and 107 % of control | endpoint: mean survival time, dose: 12.5 mg/kg/injection, schedule: Q01DX009 (ip), vehicle: water 104 % of control | endpoint: mean survival time, dose: 16.0 mg/kg/injection, schedule: Q01DX017 (ip), vehicle: other 107 % of control | endpoint: mean survival time, dose: 16.0 mg/kg/injection, schedule: Q03HX040 (ip), vehicle: other 110 % of control | endpoint: mean survival time, dose: 16.0 mg/kg/injection, schedule: Q## X009 (ip), vehicle: other 94 % of control | endpoint: mean survival time, dose: 17.0 mg/kg/injection, schedule: Q04DX002 (ip), vehicle: other 97 % of control and 113 % of control | endpoint: mean survival time, dose: 24.5 mg/kg/injection, schedule: Q01DX Z (ip), vehicle: water 112 % of control | endpoint: mean survival time, dose: 25.0 mg/kg/injection, schedule: Q01DX009 (ip), vehicle: other 120 % of control | endpoint: mean survival time, dose: 25.0 mg/kg/injection, schedule: Q01DX Z (ip), vehicle: water 115 % of control | endpoint: mean survival time, dose: 25.0 mg/kg/injection, schedule: Q04DX003 (ip), vehicle: saline 96 % of control and 100 % of control | endpoint: mean survival time, dose: 32.0 mg/kg/injection, schedule: Q01DX001 (ip), vehicle: other 100 % of control | endpoint: mean survival time, dose: 32.0 mg/kg/injection, schedule: Q02DX009 (ip), vehicle: other 112 % of control | endpoint: mean survival time, dose: 32.0 mg/kg/injection, schedule: Q04DX005 (ip), vehicle: other 101 % of control | endpoint: mean survival time, dose: 32.0 mg/kg/injection, schedule: Q08DX003 (ip), vehicle: other 101 % of control | endpoint: mean survival time, dose: 32.0 mg/kg/injection, schedule: Q## X009 (ip), vehicle: other 112 % of control | endpoint: mean survival time, dose: 49.5 mg/kg/injection, schedule: Q01DX Z (ip), vehicle: water 120 % of control | endpoint: mean survival time, dose: 50.0 mg/kg/injection, schedule: Q01DX009 (ip), vehicle: citric acid 110 % of control | endpoint: mean survival time, dose: 50.0 mg/kg/injection, schedule: Q04DX002 (ip), vehicle: saline 104 % of control | endpoint: mean survival time, dose: 50.0 mg/kg/injection, schedule: Q04DX003 (ip), vehicle: saline 105 % of control and 110 % of control | endpoint: mean survival time, dose: 64.0 mg/kg/injection, schedule: Q01DX001 (ip), vehicle: other 105 % of control | endpoint: mean survival time, dose: 64.0 mg/kg/injection, schedule: Q04DX005 (ip), vehicle: other 111 % of control | endpoint: mean survival time, dose: 64.0 mg/kg/injection, schedule: Q08DX003 (ip), vehicle: other 104 % of control | endpoint: mean survival time, dose: 67.0 mg/kg/injection, schedule: Q01DX009 (ip), vehicle: citric acid 116 % of control | endpoint: mean survival time, dose: 100.0 mg/kg/injection, schedule: Q01DX001 (ip), vehicle: other 103 % of control | endpoint: mean survival time, dose: 100.0 mg/kg/injection, schedule: Q01DX009 (ip), vehicle: citric acid 123 % of control and 124 % of control and 89 % of control | endpoint: mean survival time, dose: 100.0 mg/kg/injection, schedule: Q01DX009 (ip), vehicle: other 118 % of control | endpoint: mean survival time, dose: 100.0 mg/kg/injection, schedule: Q01DX Z (ip), vehicle: water 117 % of control | endpoint: mean survival time, dose: 100.0 mg/kg/injection, schedule: Q04DX002 (ip), vehicle: saline 120 % of control | [2] 97 % of control | endpoint: mean survival time, dose: 128.0 mg/kg/injection, schedule: Q01DX001 (ip), vehicle: other 114 % of control | endpoint: mean survival time, dose: 128.0 mg/kg/injection, schedule: Q02DX009 (ip), vehicle: other 117 % of control | endpoint: mean survival time, dose: 128.0 mg/kg/injection, schedule: Q04DX005 (ip), vehicle: other 118 % of control | endpoint: mean survival time, dose: 128.0 mg/kg/injection, schedule: Q08DX003 (ip), vehicle: other 111 % of control | endpoint: mean survival time, dose: 138.0 mg/kg/injection, schedule: Q01DX009 (ip), vehicle: other 92 % of control | endpoint: mean survival time, dose: 150.0 mg/kg/injection, schedule: Q01DX009 (ip), vehicle: citric acid 90 % of control | endpoint: mean survival time, dose: 200.0 mg/kg/injection, schedule: Q01DX001 (ip), vehicle: other 122 % of control | [4] 96 % of control and 97 % of control | endpoint: mean survival time, dose: 250.0 mg/kg/injection, schedule: Q01DX001 (ip), vehicle: citric acid 116 % of control | endpoint: mean survival time, dose: 256.0 mg/kg/injection, schedule: Q01DX001 (ip), vehicle: other 110 % of control | endpoint: mean survival time, dose: 256.0 mg/kg/injection, schedule: Q04DX005 (ip), vehicle: other 114 % of control | endpoint: mean survival time, dose: 256.0 mg/kg/injection, schedule: Q08DX003 (ip), vehicle: other 117 % of control | endpoint: mean survival time, dose: 300.0 mg/kg/injection, schedule: Q01DX001 (ip), vehicle: citric acid 118 % of control and 122 % of control | endpoint: mean survival time, dose: 300.0 mg/kg/injection, schedule: Q04DX002 (ip), vehicle: acid diluted with saline 93 % of control | endpoint: mean survival time, dose: 350.0 mg/kg/injection, schedule: Q01DX001 (ip), vehicle: citric acid 112 % of control | endpoint: mean survival time, dose: 400.0 mg/kg/injection, schedule: Q01DX001 (ip), vehicle: citric acid 111 % of control | endpoint: mean survival time, dose: 400.0 mg/kg/injection, schedule: Q01DX009 (ip), vehicle: saline 108 % of control | endpoint: mean survival time, dose: 400.0 mg/kg/injection, schedule: Q04DX002 (ip), vehicle: saline 93 % of control and 123 % of control | endpoint: mean survival time, dose: 518.0 mg/kg/injection, schedule: Q04DX002 (ip), vehicle: other 95 % of control | endpoint: median survival time, dose: 14.0 mg/kg/injection, schedule: Q01DX009 (ip), vehicle: Klucel (hydroxypropylcellulose) (HPC) 111 % of control | endpoint: median survival time, dose: 17.0 mg/kg/injection, schedule: Q01DX009 (ip), vehicle: water 108 % of control and 114 % of control | endpoint: median survival time, dose: 26.0 mg/kg/injection, schedule: Q01DX009 (ip), vehicle: water 104 % of control and 117 % of control | endpoint: median survival time, dose: 39.0 mg/kg/injection, schedule: Q01DX009 (ip), vehicle: Klucel (hydroxypropylcellulose) (HPC) 116 % of control | endpoint: median survival time, dose: 39.0 mg/kg/injection, schedule: Q01DX009 (ip), vehicle: water 111 % of control | endpoint: median survival time, dose: 87.0 mg/kg/injection, schedule: Q01DX009 (ip), vehicle: water 114 % of control | endpoint: median survival time, dose: 130.0 mg/kg/injection, schedule: Q01DX009 (ip), vehicle: water 86 % of control

CCOC(=O)Cc1ccccc1
inactive: [1] 97 % of control | endpoint: mean survival time, dose: 175.0 mg/kg/injection, schedule: Q04DX003 (ip), vehicle: saline with Tween-80 91 % of control | [3] 104 % of control | endpoint: mean survival time, dose: 265.0 mg/kg/injection, schedule: Q04DX003 (ip), vehicle: saline with Tween-80 106 % of control | [5] 99 % of control
